Ends that are not written are not given here. 2GFP = dimer of GFP proteins
Experiments:
importin-7 = biological target: T1, importin-7 (Homo sapiens, UniProt O95373); assay: Coimmunoprecipitation with importin-7; type: binding; conditions: HeLa cells
T1 construct: endogenous in cells; host or cells: HeLa
Description: FIGS. 19A-19C are autoradiographs illustrating that phospho-SPS interacts with importin-7 and releases Nup153c binding without involvment of importin-β. […]. Interaction of ERK2 with Importin-7 is enhanced by EGF stimulation and EPE mutation. HeLa cells overexpressing WT-ERK (WT), ERK-APA (APA), ERK-EPE (EPE) or GFP were serum starved and treated with EGF (50 ng/ml, 10 min). The extracts of the treated cells were then subjected to coimmunoprecipitation using A/G beads pre-conjugated with anti GFP Ab and mild washes. The coimmunoprecipitated importin-7 (first panel) and importin-β (third panel), as well as their loading amounts (panels 2 and 4 respectively) were determined by WB using anti importin-7 (αImp7) and importin-β (αImpβ) Abs. The equal amount of immunoprecipitated ERKs was determined with anti GFP (αGFP; IP) Ab. FIG. 19B. Interaction of 2GFP-SPS and its mutants with importin-7. HeLa cells overexpressing 2GFP, 2GFP-SPS, 2GFP-APA and 2GFP-EPE constructs were subjected to coimmunoprecipitation as described in FIG. 19A (without EGF stimulation). FIG. 19C. Interaction of NUP153 with WTERK2 and its APA and EPE mutants. NUP153c is elevated in APA-ERK2, but reduced in EPE-ERK2. Immunoprecipitated and stringently washed WT-ERK2 (WT), APA-ERK2 (APA) or ERK2 from […] cells pre-treated with or without TPA (250 nM, 15 min) were incubated with 0.5 μg recombinant His-Nup153c. This was followed by mild washing, and the beads were then subjected to Western blot analysis using anti His (αHis) and anti αGFP Abs.
Immunoprecipitation. Cellular extracts of stimulated transfected cells, were incubated with anti-GFP antibody preconugated to A/G beads (Santa Cruz; (2 hr, 4° C.). Subsequently, the beads were washed twice with HNTG buffer and once with 0.5 M LiCl. The immunoprecipitates were subjected either to Western blotting as described above or to an in vitro phosphatase assay as described under Results.

SPS domain = assay: SPS phosphorylation detected by anti pSPS Ab Western blot; type: cell-based; conditions: COS7 cells; for SPS phosphorylation upon stimulation (anti pSPS Ab recognition): stimulated with VOOH, TPA, EGF or TGFβ, immunoprecipitation and Western blot
Description: FIGS. 4A-4I are autoradiographs characterizing SPS phosphorylation using an Ab to the phosphorylated SPS domain. FIG. 4A illustrates an elevation of pSPS detection upon stimulation. COS cells were transfected with WT-GFP-ERK2. Twenty-four hr after transfection, the cells were serum-starved for 16 hr and subsequently treated with the general stimulator VOOH (V, 100 μM Na3VO4 and 200 μM H2O2, 15 min), TPA (T, 250 nM, 15 min), EGF (E, 50 ng/ml for 15 min), or left untreated (NT). The GFP-ERK2 was immunoprecipitated with anti GFP Ab, extensively washed, and the IP was then subjected to Western blotting with anti phospho SPS-ERK (αphoSPS-ERK) and anti general ERK (αgen-ERK) Abs. FIG. 4B is a time course of SPS phosphorylation. COS7 cells overexpressing WT-GFP-ERK2 were serum starved followed by EGF stimulation for the indicated time points. The lysates were then subjected to Western blot analysis as in FIG. 4A. FIGS. 4C-D. GFP-ERK2 was immunoprecipitated from VOOH stimulated (Act) or non-stimulated (NT), transfected COS7 cells as above. The immunoprecipitated protein was then incubated with shrimp's alkaline phosphates (SAP, 15 units, 30 min, 30° C. in the manufacturer digestion buffer), and subjected to Western blot analysis with anti phosphoSPS-ERK (αpSPS; FIG. 4C), anti phosphoTEY-ERK (αpTEY; FIG. 4D), and anti general-ERK Ab (αgen-ERK; FIGS. 4C, D). FIG. 4E. Elevation of anti pSPS Ab immunoreactivity upon stimulation of endogenous ERKs. Following serum starvation COS7 cells were treated with EGF (50 ng/ml) or VOOH (V, 100 μM Na3VO4 and 200 μM H2O2) for the indicated times. SPS phosphorylation was detected using the anti pSPS Abs, and this was compared to the amount of genral ERKs detected by αgERK. FIG. 4F. Specificity of the anti pSPS Ab. COS7 cells overexpressing either GFP-ERK2 or 244-6A mutant were serum starved for 16 hr, and then treated with EGF (50 ng/ml) for 15 min following WB analysis using αpSPS and αgERK Abs. FIG. 4G. TEY phosphorylation is not required for SPS phosphorylation. COS7 cells overexpressing WT-ERK2 or TEY-AAA were treated as described in D. FIG. 4H. COS7 cells were treated with or without UO126 prior (15 min) to EGF (50 ng/ml) stimulation for the indicated times. SPS-phosphorylation was detected using αpSPS and αgERK Abs. FIG. 4I. Phosphorylation of SPS is mediated by ERK autophosphorylation. […] The phosphorylation (^32P-ERK2) of ERK and its mutants was detected by autoradiography. […]
FIG. 9B is an autoradiograph illustrating that stimulation elevates pSPS phosphorylation of 2GFP-SPS construct. […] The total amount of immunoprecipitated 2GFP-SPS was detected with αGFP Ab. […]

T1 sequence (O95373 whole entry): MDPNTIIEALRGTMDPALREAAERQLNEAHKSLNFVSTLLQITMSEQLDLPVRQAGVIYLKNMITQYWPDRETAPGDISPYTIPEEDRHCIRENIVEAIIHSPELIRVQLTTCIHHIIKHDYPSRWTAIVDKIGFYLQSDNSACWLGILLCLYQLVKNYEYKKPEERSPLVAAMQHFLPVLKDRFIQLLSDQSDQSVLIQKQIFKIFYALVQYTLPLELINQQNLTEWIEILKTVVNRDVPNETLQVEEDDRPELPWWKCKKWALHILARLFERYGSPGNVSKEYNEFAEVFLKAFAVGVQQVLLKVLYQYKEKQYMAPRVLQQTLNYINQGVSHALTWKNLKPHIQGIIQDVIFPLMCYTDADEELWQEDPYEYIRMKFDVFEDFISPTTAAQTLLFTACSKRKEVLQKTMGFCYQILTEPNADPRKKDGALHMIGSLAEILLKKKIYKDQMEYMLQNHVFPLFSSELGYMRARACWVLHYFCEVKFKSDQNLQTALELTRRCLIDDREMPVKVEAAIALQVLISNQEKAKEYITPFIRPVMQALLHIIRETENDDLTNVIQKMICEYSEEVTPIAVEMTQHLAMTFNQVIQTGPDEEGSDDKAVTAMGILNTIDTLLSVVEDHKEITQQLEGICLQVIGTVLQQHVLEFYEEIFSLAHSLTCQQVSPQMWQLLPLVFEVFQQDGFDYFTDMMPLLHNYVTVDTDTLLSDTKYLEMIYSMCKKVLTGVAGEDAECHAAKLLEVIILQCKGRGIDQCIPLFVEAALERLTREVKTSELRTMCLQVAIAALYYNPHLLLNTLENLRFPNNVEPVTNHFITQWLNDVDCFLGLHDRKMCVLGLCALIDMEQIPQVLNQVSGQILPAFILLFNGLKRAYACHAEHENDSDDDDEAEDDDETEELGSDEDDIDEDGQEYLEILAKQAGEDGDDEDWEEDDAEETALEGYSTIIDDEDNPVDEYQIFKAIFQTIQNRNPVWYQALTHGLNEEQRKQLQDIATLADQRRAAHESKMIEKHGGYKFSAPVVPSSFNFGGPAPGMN

Substance	interaction of 2GFP constructs with importin-7 (importin-7; coimmunoprecipitation, without EGF stimulation)	SPS phosphorylation upon stimulation (anti pSPS Ab recognition) (SPS domain)	interaction of ERK2 constructs with importin-7 (importin-7; coimmunoprecipitation with anti GFP Ab, with or without stimulation)	time of peak SPS phosphorylation (SPS domain; following EGF stimulation)
2GFP-SPS: 2GFP with the 19 amino acid stretch containing the SPS of ERK2 (SEQ ID NO: 6) fused to its C terminus (2GFP-LDQLNHILGILGSPSQEDL)	did bind importin-7	elevates	–	–
WT-ERK2: wild-type ERK2 fused to GFP, prepared in pEGFP C1 [reference compound]	–	significantly increased	significantly increased upon TPA stimulation	15 min
